Measurements: PMC2323111, “Intervening with Urinary Tract Infections Using Anti-Adhesives Based on the Crystal Structure of the FimH–Oligomannose-3 Complex” (PLoS ONE, 2008)
Where two headings read alike, the source gives them in different places.

How the values were obtained:
FimH [1] = biological target: T1, FimH (Escherichia coli, UniProt P08191); assay: SPR, competition in solution with immobilized Fab 1C10; type: binding
Target sequence in this assay (P08191 22-179): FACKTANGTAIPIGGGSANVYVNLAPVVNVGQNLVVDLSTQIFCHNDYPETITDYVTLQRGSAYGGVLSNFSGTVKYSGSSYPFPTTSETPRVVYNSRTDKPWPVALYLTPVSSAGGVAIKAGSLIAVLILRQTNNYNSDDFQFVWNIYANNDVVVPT

FimH [2] = biological target: T1, FimH; assay: inhibition of FimH-dependent bacterial adhesion to […] bladder cells, fimH-negative control; type: cell-based; set-up: J96 FimH expressed from plasmid pMMB66 on type 1 pili of AAEC185(pUT2002) E. coli
Target sequence in this assay (P08191 22-300): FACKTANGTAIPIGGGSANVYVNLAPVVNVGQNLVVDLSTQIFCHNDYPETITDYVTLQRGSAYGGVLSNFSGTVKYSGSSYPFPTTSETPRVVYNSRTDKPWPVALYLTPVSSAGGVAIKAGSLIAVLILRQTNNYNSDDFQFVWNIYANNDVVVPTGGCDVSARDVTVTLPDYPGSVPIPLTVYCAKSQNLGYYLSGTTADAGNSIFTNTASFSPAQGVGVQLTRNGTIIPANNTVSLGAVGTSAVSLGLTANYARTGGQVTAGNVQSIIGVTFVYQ

FimH [3] = biological target: T1, FimH; assay: co-crystal structure, […] Å; type: binding
Target sequence in this assay (P08191 22-179): as the sequence (P08191 22-179) above

OC[C@H]1O[C@H](O[C@H]2[C@H](O)[C@@H](CO)OC(O)[C@H]2O)[C@@H](O)[C@@H](O)[C@@H]1O (mixture of isomers) [Manα1,3Man]
Kd (FimH [1]): 281 nM

CCCCCCCO[C@H]1O[C@H](CO)[C@@H](O)[C@H](O)[C@@H]1O [HM, heptyl α-D-mannose]
inhibition of FimH-dependent bacterial adhesion to 5637 bladder cells, fimH-nega (FimH [2]): HM is more efficient at reducing FimH-mediated bacterial adherence, in accordance with its higher affinity for FimH

CO[C@@H]1O[C@H](CO)[C@@H](O)[C@H](O[C@H]2O[C@H](CO)[C@@H](O)[C@H](O)[C@@H]2O)[C@@H]1O [Manα1,3ManβOMe]
Kd (FimH [1]; read-out: Kd): 112 nM

CC(=O)N[C@H]1[C@H](O[C@H]2[C@H](O)[C@@H](NC(C)=O)C(O)O[C@@H]2CO)O[C@H](CO)[C@@H](O[C@@H]2O[C@H](CO[C@H]3O[C@H](CO)[C@@H](O)[C@H](O)[C@@H]3O)[C@@H](O)[C@H](O[C@H]3O[C@H](CO)[C@@H](O)[C@H](O)[C@@H]3O)[C@@H]2O)[C@@H]1O (stereo partly shown) [oligomannose-3]
co-crystal structure, 2.1 Å (FimH [3]): Oligomannose-3 has been crystallized in complex with the FimH RBD.
